Patent US5348956A, “Substituted cyclopropylamino-1,3,5-triazines” (UCB S.A., priority 1991, dated 1994)
Read-outs that look alike come from different tables or passages of the source.

Experiments:
[1] = system: bronchospasm induced by histamine; test: bronchospasmolytic activity (Konzett and Roessler), bronchospasm induced by histamine; type: in vivo, Dunkin-Hartley guinea-pig; conditions: Cavia porcellus; intravenous; histamine-induced bronchospasm; read-out: Doses (ID50), Histamine
Outline: (§1)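 Anesthetized (urethane), curarized, ventilated Dunkin-Hartley guinea-pigs with endotracheal pressure recorded after histamine, serotonin or acetylcholine challenge. Compound given i.v. 2 min before spasmogen, then in 3–4 increasing cumulative doses at 15-min intervals; six animals per compound and spasmogen.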

[2] = system: amnesia induced by scopolamine; test: multiple-trial passive avoidance: mnemic retention, amnesia induced by scopolamine
Method: To this end, the method of multiple-trial passive avoidance has been used. […] The test is carried out on male Sprague-Dawley rats (160-200 g). which are kept in standard cages throughout the experiment. The apparatus used is a transparent square cage with 35 cm sides and 25 cm high, fitted with a grid floor which can be electrified. A rubber insulating mat (10×17 cm) is placed on the floor in one of the corners of the cage.
Each animal is subjected to four tests at times 0, 4, 24 and 28 hours. In the first test (time 0), the animal is placed on the rubber mat and the time which it takes to decide to leave this position to explore the cage is recorded. After 20 seconds of exploration, the rat receives an electric shock (3 seconds duration) in the paws, causing an escape reaction. The rat is immediately removed from the apparatus and replaced in its original cage. In the course of the three subsequent tests (times: 4, 24 and 28 hours), the animal is replaced on the rubber mat and the time taken to leave this position is recorded. As soon as the four paws of the animal rest on the grid, it receives an electric shock and is removed immediately from the apparatus.
At the start of the experiment, the rats are divided into 4 homogeneous groups of 15 animals. Thirty minutes before each test, each group of animals is subjected to a predetermined treatment:
Groups 1 and 2 are used in the first experiment (learning) and groups 3 and 4 in the second experiment (mnemic retention).
The differences found are analyzed statistically by the Mann-Whitney method.

[3] = system: plantar edema induced by immune complexes; test: "reverse passive Arthus" (RPA) test, anti-inflammatory and anti-edema activity; type: in vivo, Sprague-Dawley rat; conditions: Rattus norvegicus, intravenous
Outline: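 Rats received subplantar anti-ovalbumin serum in the right hind paw plus i.v. ovalbumin 1 ml/kg (25 mg/ml). Compound was given i.v. 30 s before induction, at ≥3 doses, 6 rats/dose. Paw volume was measured by plethysmometry at 3 and 5 h, and ID30 (μmole/kg) is the dose reducing edema 30% versus controls.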

[4] = system: anaphylactic release of histamine, guinea-pig lung sections; test: potentiation of the inhibition of anaphylactic histamine release by isoprenaline; type: cell-based, Dunkin-Hartley guinea-pigs; conditions: with isoprenaline 10^-7 mole per liter
[5] = system: anaphylactic release of histamine, guinea-pig lung sections; test: inhibition of the anaphylactic release of histamine (proper effect); type: cell-based, Dunkin-Hartley guinea-pigs; conditions: Cavia porcellus, in vitro, read-out: Minimum inhibitory dose (MID)
[6] = system: bronchospasm induced by serotonin; test: bronchospasmolytic activity (Konzett and Roessler), bronchospasm induced by serotonin; type: in vivo, Dunkin-Hartley guinea-pig; conditions: Cavia porcellus; intravenous; serotonin-induced bronchospasm; read-out: Doses (ID50), Serotonin
Outline: as §1

toxicity, Irwin's test = type: in vivo; conditions: i.p.; death of two animals out of three within 48 hours
Method: Progressive doses of the compound to be tested are administered intraperitoneally to groups of three mice until the lethal dose is reached (dose which causes the death of two animals out of three within 48 hours).

PMN granulocytes = test: inhibition of the stimulation of PMN granulocytes (chemiluminescence); type: cell-based, Rat; conditions: Rattus norvegicus; 10^-6 mole/l; FMLP 3.2×10^-7 mole/liter; read-out: Residual chemiluminescence
Text: Polymorphonuclear neutrophil granulocytes (PMN) are cells which are mobilized during inflammatory phenomena and which can be stimulated by various compounds, such as, for example, formylmethionyl-leucylphenylalanine (FMLP) or prostaglandins E (PGE1). The PMN granulocytes respond to these extracellular stimuli with an activation of the oxygen metabolism with release of toxic oxygenated metabolites. An excessive response of the PMN granulocytes may be the cause of a painful inflammation and is also accompanied by a reduction in the level of cyclic adenosine monophosphate (cAMP) in these granulocytes. Consequently, compounds which inhibit the respiratory burst of PMN granulocytes or which increase the level of cAMP can be regarded as very important in the treatment of arthritis and asthma. […] Rat PMN granulocytes (5×10^6 /ml) are preincubated in a phosphate buffer ([…], pH 7.4), containing luminol at a concentration of 10^-5 mole per liter, for 15 minutes at 37° C. and then for 5 minutes in the presence of the compound to be treated at a concentration of 10^-6 mole/liter. […] The luminescence which results from the stimulation is measured by means of an LKB 1251 luminometer according to the method of […] and […] (Infection and Immunology, 37, (1982), 34-39). An experimental cycle lasts 38 seconds. The reaction is repeated 9 times for each compound to be tested and the average of the results obtained is calculated.

[7] = 3 hours after induction of the Arthus reaction, read-out: Dose (ID30), 3 hours
[8] = 5 hours after induction of the Arthus reaction, read-out: Dose (ID30), 5 hours

OC1CN(c2nc(NC3CC3)nc(C3CC3)n2)C1 [Compound 13]
ED50 [1]: 0.1 µmol/kg
Period of remaining on the mat, group 4 ([2]; 4 hours, 2.5 mg/kg i.p. + 0.5 mg scopolamine): 55.3 s
Period of remaining on the mat, group 4 ([2]; 24 hours, 2.5 mg/kg i.p. + 0.5 mg scopolamine): 92.5 s
Period of remaining on the mat, group 4 ([2]; 28 hours, 2.5 mg/kg i.p. + 0.5 mg scopolamine): 99.0 s
Period of remaining on the mat, group 4 ([2]; time 0, 2.5 mg/kg i.p. + 0.5 mg scopolamine): 7.7 s
ED30 [3, 7]: 9 µmol/kg
ED30 [3, 8]: 4 µmol/kg
Minimum potentiating dose (MPD) [4]: 1.0 µmol/L
minimal effective concentration [5]: 1 µM
ED50 [6]: 0.6 µmol/kg
Lethal dose (toxicity, Irwin's test): 247.3 mg/kg
activity at 1 µM (PMN granulocytes): 79%

COC1CN(c2nc(NC3CC3)nc(C3CC3)n2)C1 [Compound 14]
ED50 [1]: 0.09 µmol/kg
Period of remaining on the mat, group 4 ([2]; 4 hours, 2.6 mg/kg i.p. + 0.5 mg scopolamine): 36.3 s
Period of remaining on the mat, group 4 ([2]; 24 hours, 2.6 mg/kg i.p. + 0.5 mg scopolamine): 73.9 s
Period of remaining on the mat, group 4 ([2]; 28 hours, 2.6 mg/kg i.p. + 0.5 mg scopolamine): 139.1 s
Period of remaining on the mat, group 4 ([2]; time 0, 2.6 mg/kg i.p. + 0.5 mg scopolamine): 11.7 s
ED30 [3, 7]: 16 µmol/kg
ED30 [3, 8]: 12 µmol/kg
Minimum potentiating dose (MPD) [4]: 0.32 µmol/L
minimal effective concentration [5]: 1 µM
ED50 [6]: 0.2 µmol/kg
Lethal dose (toxicity, Irwin's test): 156.8 mg/kg
activity at 1 µM (PMN granulocytes): 51%

C1CC1Nc1nc(C2CC2)nc(N2CC3CCC(C2)O3)n1 [Compound 16]
ED50 [1]: 0.009 µmol/kg
Period of remaining on the mat, group 4 ([2]; 4 hours, 3.25 mg/kg i.p. + 0.5 mg scopolamine): 35.1 s
Period of remaining on the mat, group 4 ([2]; 24 hours, 3.25 mg/kg i.p. + 0.5 mg scopolamine): 118.5 s
Period of remaining on the mat, group 4 ([2]; 28 hours, 3.25 mg/kg i.p. + 0.5 mg scopolamine): 101.1 s
Period of remaining on the mat, group 4 ([2]; time 0, 3.25 mg/kg i.p. + 0.5 mg scopolamine): 11.3 s
ED30 [3, 7]: 1.5 µmol/kg
ED30 [3, 8]: 2 µmol/kg
Minimum potentiating dose (MPD) [4]: 0.032 µmol/L
minimal effective concentration [5]: 0.1 µM
ED50 [6]: 0.009 µmol/kg
Lethal dose (toxicity, Irwin's test): 194 mg/kg
activity at 1 µM (PMN granulocytes): 42%
